Where two headings read alike, the source gives them in different places.
Assay: Mouse blood and tissue PK (LC/MS-MS)
Assay type: in vivo
Conditions: mouse, tumor, oral
Method: For single-dose PKPD study, mice were randomized and assigned into groups (n = 3/dose/time point). […] Blood and tissues, including the tumor, brain, colon, ear skin, and muscle, were harvested at indicated time points. […] The whole blood, tumor, brain, colon, and ear skin concentrations of RMC-6236 were determined using liquid chromatography–tandem mass spectrometry (LC/MS-MS) methods. […] After thorough mixing and centrifugation, the supernatant was diluted with water or directly analyzed on a Sciex 5500 or Sciex 6500+ triple quadrupole mass spectrometer equipped with an ACQUITY or Shimadzu UPLC system. […] Bioanalysis on blood and tissue samples from xenograft models was run at Pharmaron and Wuxi AppTec. Concentrations reported as below the quantification limit were treated as zero for PK analysis. PK parameters were calculated by noncompartmental analysis of the concentration–time profiles using Phoenix WinNonLin (version 8.3 Certara). Apparent terminal elimination half-life (t1/2) values were calculated as ln(2)/k, where k represents the terminal elimination rate constant. Area under the concentration–time curve (AUC) values were estimated using a linear trapezoidal method. AUClast values were calculated from the dosing time to the last quantifiable concentration. Maximum concentration (Cmax) was recorded as observed.

CCn1c(-c2cc(N3CCN(C)CC3)cnc2[C@H](C)OC)c2c3cc(ccc31)-c1csc(n1)C[C@H](NC(=O)[C@H]1C[C@@H]1C)C(=O)N1CCC[C@H](N1)C(=O)OCC(C)(C)C2 [RMC-6236]
concentration at 4 h (25 mg/kg, HPAC #4, 25 mg/kg, individual animals, read-out: RMC-6236 (nM) Tumor): 4090 nM
concentration at 8 h (25 mg/kg, HPAC #4, 25 mg/kg, 8h, individual animals, read-out: RMC-6236 (nM) Tumor): 4080 nM
concentration at 24 h (25 mg/kg, HPAC #4, 25 mg/kg, 24h, individual animals, read-out: RMC-6236 (nM) Tumor): 1260 nM
concentration at 8 h (25 mg/kg, KP-4, study KP-4 #3, 25 mg/kg, 8h, read-out: RMC-6236 (nM) Tumor): 3260 nM
concentration at 24 h (25 mg/kg, KP-4, study KP-4 #3, 25 mg/kg, 24h, read-out: RMC-6236 (nM) Tumor): 758 nM
concentration at 8 h (25 mg/kg, KP-4, study KP-4 #4, 25 mg/kg, 8h, read-out: RMC-6236 (nM) Tumor): 3030 nM
concentration at 24 h (25 mg/kg, KP-4, study KP-4 #4, 25 mg/kg, 24h, read-out: RMC-6236 (nM) Tumor): 840 nM
concentration at 48 h (25 mg/kg, KP-4, study KP-4 #4, 25 mg/kg, 48h, read-out: RMC-6236 (nM) Tumor): 312 nM
concentration at 4 h (25 mg/kg, KP-4, study KP-4 #5, 25 mg/kg, read-out: RMC-6236 (nM) Tumor): 2460 nM
concentration at 24 h (25 mg/kg, KP-4, study KP-4 #5, 25 mg/kg, 24h, read-out: RMC-6236 (nM) Tumor): 859 nM
concentration at 48 h (25 mg/kg, KP-4, study KP-4 #5, 25 mg/kg, 48h, read-out: RMC-6236 (nM) Tumor): 281 nM
concentration at 8 h (25 mg/kg, KP-4, study KP-4 #6, 25 mg/kg, 8h, read-out: RMC-6236 (nM) Tumor): 4160 nM
concentration at 24 h (25 mg/kg, KP-4, study KP-4 #6, 25 mg/kg, 24h, read-out: RMC-6236 (nM) Tumor): 1500 nM
concentration at 48 h (25 mg/kg, KP-4, study KP-4 #6, 25 mg/kg, 48h, read-out: RMC-6236 (nM) Tumor): 739 nM
concentration at 1 h (25 mg/kg, Model Development Dataset, 25mg/kg_study8, read-out: Tumor Concentration): 457 nM
concentration at 2 h (25 mg/kg, Model Development Dataset, 25mg/kg_study8, 2 h, read-out: Tumor Concentration): 1530 nM
concentration at 8 h (25 mg/kg, Model Development Dataset, 25mg/kg_study8, 8 h, read-out: Tumor Concentration): 2320 nM
concentration at 24 h (25 mg/kg, Model Development Dataset, 25mg/kg_study8, 24 h, read-out: Tumor Concentration): 995 nM
concentration at 240 h (25 mg/kg, Model Development Dataset, 25mg/kg_study8r (doses every 24 h, 0-[…]), read-out: Tumor Concentration): 410 nM
concentration at 1 h (25 mg/kg, Model Validation Dataset, 25mg/kg_study6, read-out: Tumor Concentration): 358 nM
concentration at 8 h (25 mg/kg, Model Validation Dataset, 25mg/kg_study6, 8 h, read-out: Tumor Concentration): 2570 nM
concentration at 24 h (25 mg/kg, Model Validation Dataset, 25mg/kg_study6, 24 h, read-out: Tumor Concentration): 890 nM
concentration at 48 h (25 mg/kg, Model Validation Dataset, 25mg/kg_study6, 48 h, read-out: Tumor Concentration): 690 nM
concentration at 72 h (25 mg/kg, Model Validation Dataset, 25mg/kg_study6, 72 h): 433 nM
concentration at 8 h (25 mg/kg, NCI-H441 xenograft tumor, study NCI-H441#6, 25 mg/kg, 8h, read-out: RMC-6236 (nM) Tumor): 2380 nM
concentration at 24 h (25 mg/kg, NCI-H441 xenograft tumor, study NCI-H441#6, 25 mg/kg, 24h, read-out: RMC-6236 (nM) Tumor): 989 nM
concentration at 48 h (25 mg/kg, NCI-H441 xenograft tumor, study NCI-H441#6, 25 mg/kg, 48h, read-out: RMC-6236 (nM) Tumor): 641 nM
concentration at 8 h (25 mg/kg, NCI-H441 xenograft tumor, study NCI-H441#8, 25 mg/kg, 8h, read-out: RMC-6236 (nM) Tumor): 2740 nM
concentration at 24 h (25 mg/kg, NCI-H441 xenograft tumor, study NCI-H441#8, 25 mg/kg, 24h, read-out: RMC-6236 (nM) Tumor): 1080 nM
concentration at 4 h (25 mg/kg, sheet colon, KP-4, KP-4 #5, 25 mg/kg, read-out: RMC-6236 (nM) Tumor): 5860 nM
concentration at 24 h (40 mg/kg, KP-4, study KP-4 #4, 40 mg/kg, 24h, read-out: RMC-6236 (nM) Tumor): 1620 nM
concentration at 48 h (40 mg/kg, KP-4, study KP-4 #4, 40 mg/kg, 48h, read-out: RMC-6236 (nM) Tumor): 661 nM
concentration at 1 h (40 mg/kg, Model Development Dataset, 40mg/kg_study8, read-out: Tumor Concentration): 947 nM
concentration at 2 h (40 mg/kg, Model Development Dataset, 40mg/kg_study8, 2 h, read-out: Tumor Concentration): 3090 nM
concentration at 8 h (40 mg/kg, Model Development Dataset, 40mg/kg_study8, 8 h, read-out: Tumor Concentration): 3380 nM
concentration at 24 h (40 mg/kg, Model Development Dataset, 40mg/kg_study8, 24 h, read-out: Tumor Concentration): 1810 nM
concentration at 240 h (40 mg/kg, Model Development Dataset, 40mg/kg_study8r (doses every 24 h, 0-[…]), read-out: Tumor Concentration): 876 nM
concentration at 2 h (40 mg/kg, NCI-H441 xenograft tumor, study NCI-H441#8, 40 mg/kg, 2h, read-out: RMC-6236 (nM) Tumor): 3260 nM
concentration at 8 h (40 mg/kg, NCI-H441 xenograft tumor, study NCI-H441#8, 40 mg/kg, 8h, read-out: RMC-6236 (nM) Tumor): 2820 nM
concentration at 4 h (50 mg/kg, HPAC #3, 50 mg/kg, individual animals, read-out: RMC-6236 (nM) Tumor): 4620 nM
concentration at 8 h (50 mg/kg, HPAC #3, 50 mg/kg, 8h, individual animals, read-out: RMC-6236 (nM) Tumor): 6090 nM
concentration at 24 h (50 mg/kg, HPAC #3, 50 mg/kg, 24h, individual animals, read-out: RMC-6236 (nM) Tumor): 3810 nM
concentration at 48 h (50 mg/kg, HPAC #3, 50 mg/kg, 48h, individual animals, read-out: RMC-6236 (nM) Tumor): 1440 nM
concentration at 8 h (50 mg/kg, KP-4, study KP-4 #3, 50 mg/kg, 8h, read-out: RMC-6236 (nM) Tumor): 5580 nM
concentration at 24 h (50 mg/kg, KP-4, study KP-4 #3, 50 mg/kg, 24h, read-out: RMC-6236 (nM) Tumor): 2070 nM
concentration at 48 h (50 mg/kg, KP-4, study KP-4 #3, 50 mg/kg, 48h, read-out: RMC-6236 (nM) Tumor): 489 nM
concentration at 1 h (50 mg/kg, Model Validation Dataset, 50mg/kg_study6, read-out: Tumor Concentration): 1310 nM
concentration at 8 h (50 mg/kg, Model Validation Dataset, 50mg/kg_study6, 8 h, read-out: Tumor Concentration): 4800 nM

— PMC11149917, “Translational and Therapeutic Evaluation of RAS-GTP Inhibition by RMC-6236 in RAS-Driven Cancers” (Cancer Discovery, 2024)
